“And” between values parts separate entries of the source, which are not always exact repeats. Equal values may be shown once.
Experiments:
[1] = test system: PPI in normal rats; test: PPI in normal rats (dosing test, normal saline instead of DOI); type: in vivo; conditions: for PPI %, MEAN / PPI %, individual animal: normal saline
Procedure: (§1) The test was performed according to literature and preliminary experiments, and the specific process was as follows: first an adaptation period of 5 min was given (62 dB background sound), and 5 separate startle reflex stimuli were given after the adaptation period (blockl, results not included in the analysis to reduce the initial response of the animals to a plateau level), followed by 4 different types of tests (block2) presented in a pseudo-random manner, namely: 1) startle reflex stimulus alone (pulse-alone, 120 dB, lasting 20 ms); 2) prepulse stimulus alone 13 dB above the background sound (prepulse-alone, 75 dB, lasting 20 ms); 3) prepulse stimulus in combination with startle reflex stimulus, each lasting 20 ms, with an interval of 100 ms; and 4) no stimulus in which only the background sound was given (no stimulus). Each trial was performed 5 times, with an average interval of 20 s (10-30 s) between trials.
(§2) The response amplitude of the startle reflex stimulus alone or the prepulse stimulus in combination with startle reflex stimulus was expressed as the AVG (instrument-specific unit) value, which indirectly reflects the size of the flinching response of the rat body. Evaluation index: PPI %=(1−response amplitude of prepulse stimulus in combination with startle reflex stimulus/response amplitude of startle reflex stimulus alone)×100. The higher the value is, the greater the degree of the inhibition is. Dosing Test:
The DOI at 0.5 mg/kg administered to animals in the above groups was changed to normal saline (NS), and other operations including administration and testing were the same as those in the intervention test.

[2] = test system: DOI-induced PPI impairment in rats; test: DOI-induced PPI impairment test in rats (intervention test); type: in vivo; conditions: DOI 0.5 mg/kg
Procedure: 3. DOI ((f)-1-(2,5-dimethoxy-4-iodophenyl)-2-aminopropane hydrochloride or (f)-2,5-dimethoxy-4-iodoamphetamine hydrochloride) induced PPI impairment effect test in rats
30 min after the intragastric administration of a drug (or a vehicle) and 30 min after the subcutaneous injection of DOI at 0.5 mg/kg at the neck, namely 60 min after the intragastric administration, the rats were placed into a startle reflex test box for testing.
as §1
as §2, with “is.” for “is. Dosing Test:”

CC(C)COc1ccc(CN2Cc3ccc(F)cc3CN(C3CCN(C)CC3)C2=O)cc1 [NH-K-A19005, 8-fluoro-2-(1-methylpiperidin-4-yl)-4-[[4-(2-methylpropoxy)phenyl]methyl]-1,5-dihydro-2,4-benzo diazepine-3-one]
effect on PPI in normal rats ([1]; 3 mg/kg): no significant effects were seen
PPI %, MEAN ([1]; 1 mg/kg intragastric): 56.40%
PPI %, individual animal ([1]; 1 mg/kg intragastric): 80.68% and 15.47% and 49.79% and 52.82% and 71.15% and 68.46%
PPI %, MEAN ([1]; 3 mg/kg intragastric): 57.04%
PPI %, individual animal ([1]; 3 mg/kg intragastric): 59.36% and 82.61% and 79.48% and 48.75% and 42.42% and 38.56% and 48.95% and 56.22%
PPI %, MEAN ([1]; 10 mg/kg intragastric): 73.61%
PPI %, individual animal ([1]; 10 mg/kg intragastric): 55.11% and 96.41% and 53.03% and 84.89% and 84.43% and 72.39% and 61.37% and 81.26%
reversal of DOI-induced PPI impairment ([2]; 3 mg/kg, P<0.05): significantly reverse
PPI %, MEAN ([2]; 1 mg/kg intragastric): 40.15%
PPI %, individual animal ([2]; 1 mg/kg intragastric): 55.27% and 13.13% and 49.29% and 40.22% and 11.24% and 71.74%
PPI %, MEAN ([2]; 3 mg/kg intragastric): 42.95%
PPI %, individual animal ([2]; 3 mg/kg intragastric): 36.23% and 53.57% and 36.93% and 47.37% and 45.54% and 61.94% and 38.90% and 23.16%
PPI %, MEAN ([2]; 10 mg/kg intragastric): 52.40%
PPI %, individual animal ([2]; 10 mg/kg intragastric): 86.67% and 28.57% and 78.84% and 65.78% and 63.08% and 0.38% and 52.03% and 43.86%
